Results reported in patent publication US10654834B2 (Venenum Biodesign, LLC, priority 2016, dated 2020).

Assays:
human TGR5 receptor = target: T1, human TGR5 receptor (Homo sapiens, UniProt Q8TDU6); experiment: Human TGR5 cAMP production assay (hTGR5-CHO cells, DiscoveRx cAMP XS+ kit); type: cell-based; conditions: luminescent cAMP assay, read-out: Human TGR5 Lum. cAMP Activity (EC50)
T1 construct: host or cells: CHO-K1 (hTGR5-CHO)
T1 sequence (Q8TDU6 1-330): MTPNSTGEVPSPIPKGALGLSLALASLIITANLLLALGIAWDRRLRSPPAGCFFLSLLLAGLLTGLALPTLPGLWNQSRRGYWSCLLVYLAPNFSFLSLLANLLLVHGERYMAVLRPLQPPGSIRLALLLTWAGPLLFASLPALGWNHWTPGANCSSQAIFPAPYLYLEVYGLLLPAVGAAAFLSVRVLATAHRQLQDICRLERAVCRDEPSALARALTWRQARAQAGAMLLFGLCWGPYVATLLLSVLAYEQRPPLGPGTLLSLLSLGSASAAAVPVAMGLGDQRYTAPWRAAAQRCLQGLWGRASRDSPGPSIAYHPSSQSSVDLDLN
Description: Human TGR5 cAMP Production Assay
Compounds of the present invention were evaluated for their ability to induce cAMP production using CHO-K1 cells overexpressing the human TGR5 receptor.
CHO-K1 cells stably expressing human TGR5 receptor (accession number NM_001077194.1) (hTGR5) (i.e., hTGR5-CHO cells) were purchased from DiscoveRx Corporation (Fremont, Calif.). hTGR5-CHO cells were grown in Ham's F-12 media supplemented with 10% Fetal Bovine Serum, 1% Penicillin-Streptomycin, 2 mM L-Alanine L-Glutamine (Glutamax), and 800 μg/mL Geneticin selection. The cAMP production assay was performed using DiscoveRx's cAMP XS+ kit (Catalog No. 90-0075XL) following the manufacturer's recommended protocol. Briefly, hTGR5-CHO cells were harvested using non-enzymatic cell dissociation buffer (Sigma-Aldrich, St. Louis, Mo.) and 1×10^6 cells were combined in Phosphate-Buffered Saline (PBS) to a final volume of 496 μL to which 4 μL of 125 mM IBMX (Sigma-Aldrich, St. Louis, Mo.) was added. 500 μL of cAMP antibody solution was added to the harvested cells and incubated at room temperature for 20 min.
Test compounds were serially diluted (half-log dilutions) in DMSO and then further diluted 1:50 in PBS, 10 mM HEPES buffer. 2 μL of serially diluted compound was added to a 384-well low volume plate (Greiner; cat #784075) and centrifuged briefly. 2 μl of the cell/cAMP antibody mixture was then added to each compound-containing well and allowed to incubate at room temperature for one hour. Following incubation, the XS+ kits' ED/Lysis/CL Substrate Working Solution was prepared following the manufacturer's recommended protocol and 4 μL was added to each well of the plate. The plate was then incubated for one hour at room temperature. Following incubation, 4 μL of Enzyme Acceptor reagent was added to the plate and allowed to incubate overnight at room temperature. Luminescent signal was then detected using the Viewlux instrument (Perkin-Elmer, Waltham, Mass.).
Human and Mouse TGR5 cAMP
(§1) In Table 52, EC50 values for both human and mouse cells were determined according to the TGR5 cAMP assays described above. […]

mouse TGR5 receptor = target: T2, mouse TGR5 receptor (Mus musculus, UniProt Q80SS6); experiment: Mouse TGR5 HTRF cAMP production assay (HEK293-EBNA cells, Cisbio cAMP HiRange kit); type: cell-based; conditions: HEK293-EBNA cells overexpressing mouse TGR5, HTRF cAMP assay
T2 construct: host or cells: HEK293-EBNA (293 c18, ATCC CRL10852)
T2 sequence (Q80SS6 1-329): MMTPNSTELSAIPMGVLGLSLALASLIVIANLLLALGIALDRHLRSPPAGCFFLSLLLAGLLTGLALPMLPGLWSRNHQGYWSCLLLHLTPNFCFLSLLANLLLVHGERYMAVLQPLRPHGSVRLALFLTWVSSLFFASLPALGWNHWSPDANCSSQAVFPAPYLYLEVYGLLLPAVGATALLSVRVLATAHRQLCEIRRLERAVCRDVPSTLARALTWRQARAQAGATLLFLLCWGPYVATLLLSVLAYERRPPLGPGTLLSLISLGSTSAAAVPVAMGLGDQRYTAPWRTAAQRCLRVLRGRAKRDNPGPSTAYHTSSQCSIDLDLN
Description: Mouse TGR5 cAMP Production Assay
Compounds of the present invention were evaluated for their ability to induce cAMP production in HEK-EBNA cells overexpressing the mouse TGR5 receptor. Human embryonic kidney cells (HEK293-EBNA) stably expressing mouse TGR5 receptor were established using the following procedure. Specifically, a commercially obtained gene encoding mouse TGR5 (accession number BC116914) from Thermo Scientific (Waltham, Mass.) was cloned into an episomal expression vector. The resulting expression plasmid was then transfected into 293 c18 (ATCC® CRL10852™) cells, which express the Epstein-Barr virus nuclear antigen EBNA1 and can support the replication of episomal vectors. Selection for the plasmid was maintained with Hygromycin B. Cells were cultured and maintained in DMEM (Sigma; cat #6429) supplemented with 10% Fetal Bovine Serum, 1% penicillin/streptomycin, 2 mM L-alanine L-glutamine (GlutaMax), and 250 μg/mL Hygromycin.
We developed two cAMP production assays.
(ii) HTRF cAMP Production Assay
In this second cAMP production assay, the cAMP production was measured in 384-well low volume plates (Greiner; cat #784075) using the Cisbio™ cAMP HiRange HTRF Assay Kit (CisBio) according to the manufacturer's protocol.
Briefly, compounds were initially diluted in 100% DMSO (12-point serial dilution by half logs) in a 96-well plate and then were further diluted 1:50 in PBS containing 10 mM HEPES. 5 μL were transferred to the 384-well assay plate in duplicate. HEK293-EBNA cells stably overexpressing mouse TGR5 were harvested using non-enzymatic cell dissociation buffer (Sigma), spun down, then resuspended in serum-free DMEM with 500 μM IBMX at a density of 500,000 cells/mL. 5 μL of cell suspension was transferred to each well of the 384-well assay plate already containing compound. The plate was covered and incubated at room temperature for 1 hour. The d2-cAMP and anti-cAMP Ab-cryptate stock solutions were prepared as per kit instructions. Then 5 μL of each conjugate (d2 and cryptate) were added to each well of the assay plate. The plate was covered and incubated at room temperature for one (1) hour. The plate was read on an Envision™ plate reader (PerkinElmer).
as §1

SMILES	EC50 (human TGR5 receptor) [nM]	EC50 (mouse TGR5 receptor) [nM]
CN(C)CCN1CCN(c2cc(N3CCC[C@H]3C(=O)NCCc3ccc(C#N)cc3)nc(C(F)(F)F)n2)CC1 [Compound 30]	100 to 999	100 to 999
N#Cc1ccc(CCNC(=O)[C@@H]2CCCN2c2cc(N3CCC(CCN4C(=O)N[C@@H](CS(=O)(=O)O)C4=O)CC3)nc(C(F)(F)F)n2)cc1 [Compound 122, ((R)-1-(2-(1-(6-((S)-2-((4-cyanophenethyl)carbamoyl)pyrrolidin-1-yl)-2-(trifluoromethyl)pyrimidin-4-yl)piperidin-4-yl)ethyl)-2,5-dioxoimidazolidin-4-yl)methanesulfonic acid]	< 100	< 100
N#CCCN1CCN(c2cc(N3CCC[C@@H](C(=O)NCCc4ccc(C#N)cc4)C3)nc(C(F)(F)F)n2)CC1 [Compound 316, (R)-1-(6-(4-(2-cyanoethyl)piperazin-1-yl)-2-(trifluoromethyl)pyrimidin-4-yl)-N-(4-cyanophenethyl)piperidine-3-carboxamide]	< 100	< 100
N#Cc1ccc(CCNC(=O)[C@@H]2CCCN2c2cc(-c3ccc(C(=O)O)s3)nc(C(F)(F)F)n2)cc1 [Compound 181, (S)-5-(6-(2-((4-cyanophenethyl)carbamoyl)pyrrolidin-1-yl)-2-(trifluoromethyl)pyrimidin-4-yl)thiophene-2-carboxylic acid]	100 to 999	< 100
O=C(CCCC1CCN(c2cc(N3CCC[C@H]3C(=O)NCCc3ccc(-c4ccncc4)cc3)nc(C(F)(F)F)n2)CC1)NCS(=O)(=O)O [Compound 353, (S)-(4-(1-(6-(2-((4-(pyridin-4-yl)phenethyl)carbamoyl)pyrrolidin-1-yl)-2-(trifluoromethyl)pyrimidin-4-yl)piperidin-4-yl)butanamido)methanesulfonic acid]	< 100	< 100
N#Cc1ccc(CCNC(=O)[C@@H]2CCN2c2cc(N3CCN(CCO)CC3)nc(C(F)(F)F)n2)cc1 [Compound 224, (S)-N-(4-cyanophenethyl)-1-(6-(4-(2-hydroxyethyl)piperazin-1-yl)-2-(trifluoromethyl)pyrimidin-4-yl)azetidine-2-carboxamide]	100 to 999	< 100
N#Cc1ccc(CCNC(=O)[C@@H]2CCN2c2cc(N3CCC(CCNC(=O)NCCOCCNC(=O)C(F)(F)F)CC3)nc(C(F)(F)F)n2)cc1 [Compound 357, (S)-N-(4-cyanophenethyl)-1-(6-(4-(13,13,13-trifluoro-4,12-dioxo-8-oxa-3,5,11-triazatridecyl)piperidin-1-yl)-2-(trifluoromethyl)pyrimidin-4-yl)azetidine-2-carboxamide]	< 100	< 100
O=C(NCCc1ccc(C(F)(F)F)cc1)[C@@H]1CCN1c1cc(N2CCC(CCCC3CCNCC3)CC2)nc(C(F)(F)F)n1 [Compound 275, (S)-1-(6-(4-(3-(piperidin-4-yl)propyl)piperidin-1-yl)-2-(trifluoromethyl)pyrimidin-4-yl)-N-(4-(trifluoromethyl)phenethyl)azetidine-2-carboxamide]	< 100	100 to 999
N#Cc1ccc(CCNC(=O)[C@@H]2CCCN2c2cc(N3CCC(CCCNC(=O)NCS(=O)(=O)O)CC3)cc(C(F)(F)F)n2)cc1 [Compound 201, (S)-(3-(3-(1-(2-(2-((4-cyanophenethyl)carbamoyl)pyrrolidin-1-yl)-6-(trifluoromethyl)pyridin-4-yl)piperidin-4-yl)propyl)ureido)methanesulfonic acid]	100 to 999	< 100
O=C(O)CCNC(=O)N1CCN(c2cc(N3CCC[C@@H](C(=O)NCCc4ccc(C(F)(F)F)cc4)C3)nc(C(F)(F)F)n2)CC1 [Compound 344, (R)-3-(4-(2-(trifluoromethyl)-6-(3-((4-(trifluoromethyl)phenethyl)carbamoyl)-piperidin-1-yl)pyrimidin-4-yl)piperazine-1-carboxamido)propanoic acid]	100 to 999	< 100
N#Cc1ccc(CCNC(=O)[C@@H]2CCCN2c2cc(-c3ccc(CNC(=O)NCS(=O)(=O)O)cc3)nc(C(F)(F)F)n2)cc1 [Compound 192, (S)-(3-(4-(6-(2-((4-cyanophenethyl)carbamoyl)pyrrolidin-1-yl)-2-(trifluoromethyl)pyrimidin-4-yl)benzyl)ureido)methanesulfonic acid]	100 to 999	< 100
N#Cc1ccc(CCNC(=O)[C@@H]2CCCN2c2cc(-c3ccc(CN4CCNCC4)cc3)nc(C(F)(F)F)n2)cc1 [Compound 187, (S)-N-(4-cyanophenethyl)-1-(6-(4-(piperazin-1-ylmethyl)phenyl)-2-(trifluoromethyl)pyrimidin-4-yl)pyrrolidine-2-carboxamide]	1000 to 30000	100 to 999
O=C(O)CCNC(=O)NCCC1CCN(c2cc(N3CCC[C@H]3C(=O)NCCc3ccc(-c4ccncc4)cc3)nc(C(F)(F)F)n2)CC1 [Compound 376, (S)-3-(3-(2-(1-(6-(2-((4-(pyridin-4-yl)phenethyl)carbamoyl)pyrrolidin-1-yl)-2-(trifluoromethyl)pyrimidin-4-yl)piperidin-4-yl)ethyl)ureido)propanoic acid]	100 to 999	< 100
N#Cc1ccc(CCNC(=O)[C@@H]2CCN2c2cc(N3CCC(CCCC(=O)N[C@@H](CCCNC(=N)N)C(=O)O)CC3)nc(C(F)(F)F)n2)cc1 [Compound 251, (S)-2-(4-(1-(6-((S)-2-((4-cyanophenethyl)carbamoyl)azetidin-1-yl)-2-(trifluoromethyl)pyrimidin-4-yl)piperidin-4-yl)butanamido)-5-guanidinopentanoic acid]	< 100	< 100
N#Cc1ccc(CCNC(=O)[C@@H]2CCCN2c2cc(N3CCC(CCCC(=O)N[C@@H](CCCNC(=N)N)C(=O)O)CC3)cc(C(F)(F)F)n2)cc1 [Compound 200, (S)-2-(4-(1-(2-((S)-2-((4-cyanophenethyl)carbamoyl)pyrrolidin-1-yl)-6-(trifluoromethyl)pyridin-4-yl)piperidin-4-yl)butanamido)-5-guanidinopentanoic acid]	< 100	< 100
